Reference: patent US20150273069A1, “FATTY ACID ACYLATED AMINO ACIDS FOR ORAL PEPTIDE DELIVERY” (NOVO NORDISK A/S, priority 2012, published 2015)

Experiments:
Caco-2 cell monolayers = experiment: Transport of semaglutide across Caco-2 cell monolayers in the presence of fatty acid acylated amino acids; type: in vitro ADME; conditions: for permeation enhancing effect: on semaglutide across Caco-2 monolayers, compared among the fatty acid acylated amino acids tested; for Papp: permeation of semaglutide (100 μM), apical to basolateral, with 0.5 mM fatty acid acylated amino acid, pH 7.4
Experimental: (§1) Caco-2 cells were obtained from the American Type Culture Collection (Manassas, Va.). Cells were seeded in culturing flasks and passaged in Dulbecco's Modified Eagle′ medium supplemented with 10% fetal bovine serum, 1% penicillin/streptomycin (100 U/ml and 100 μg/ml, respectively), 1% L-glutamine and 1% nonessential amino acids. Caco-2 cells were seeded onto tissue culture treated polycarbonate filters in 12-well Transwell® plates (1.13 cm2, 0.4 μm pore size) at a density of 10^5 cells/well. Monolayers were grown in an atmosphere of 5% CO2-95% O2 at 37° C. Growth media were replaced every other day. The experiment was performed on day 10-14 after seeding of Caco-2 cells.
(§2) The amount of compound transported from the donor chamber (apical side) to the receiver chamber (basolateral side) was measured. The transport study was initiated by adding 400 μl solution (100 μM of semaglutide+0.5 mM fatty acid acylated amino acids) and 0.4 μCi/μl [3H]manntiol in transport buffer to the donor chamber and 1000 μl transport buffer to the receiver chamber. The transport buffer consisted of Hank's balanced saline solution containing 10 mM HEPES, […] to pH 7.4 after addition of compounds. The transport of [^3H]mannitol, a marker for paracellular transport, was measured to verify the integrity of the epithelium.
(§3) Before the experiment, the Caco-2 cells were equilibrated for 60 min with transport buffer on both sides of the epithelium. Buffer was then removed and the experiment initiated. Donor samples (20 μl) were taken at 0 min and at the end of the experiment. Receiver samples (200 μl) were taken every 15 min. The study was performed in an atmosphere of 5% CO2-95% O2 at 37° C. on a shaking plate (30 rpm).
(§4) In all samples with semaglutide and mannitol, the concentration was determined using a LOCI assay and scintillation counter, respectively.
(§5) Before and during the experiment the transepithelial electrical resistance (TEER) of the cell monolayers was monitored. In selected experiments, the transport buffer were changed to culturing medium after end of experiment and the TEER measured 24 h after experiment. The TEER was measured with EVOM™ Epithelial Voltohmmeter connected to Chopsticks.

[1] = as above; type: in vitro ADME; conditions: human, Caco-2; permeation of semaglutide (100 μM), apical to basolateral, permeation enhancer: None, pH 7.4
Experimental: as §1, §2, §3, §4, §5

permeation enhancing effect (Caco-2 cell monolayers)	Papp (Caco-2 cell monolayers)	Papp A→B at 100 μM [1]	SMILES
greatest effect	78.83 10^−8 cm/s		CCCCCCCCCCCCCC(=O)N[C@H](C(=O)[O-])C(C)C.[Na+] [Sodium N-myristoyl L-valinate]
	5.60 10^−8 cm/s		CCCCCCCCCCCC(=O)N[C@@H](Cc1ccccc1)C(=O)[O-].[Na+] [Sodium N-dodecanoyl L-phenylalaninate]
		0.0065 ×10⁻⁶ cm/s	CC[C@H](C)[C@H](NC(=O)[C@H](Cc1ccccc1)NC(=O)[C@H](CCC(=O)O)NC(=O)[C@H](CCCCNC(=O)COCCOCCNC(=O)COCCOCCNC(=O)CC[C@H](NC(=O)CCCCCCCCCCCCCCCCC(=O)O)C(=O)O)NC(=O)[C@H](C)NC(=O)[C@H](C)NC(=O)[C@H](CCC(N)=O)NC(=O)CNC(=O)[C@H](CCC(=O)O)NC(=O)[C@H](CC(C)C)NC(=O)[C@H](Cc1ccc(O)cc1)NC(=O)[C@H](CO)NC(=O)[C@H](CO)NC(=O)[C@@H](NC(=O)[C@H](CC(=O)O)NC(=O)[C@H](CO)NC(=O)[C@@H](NC(=O)[C@H](Cc1ccccc1)NC(=O)[C@@H](NC(=O)CNC(=O)[C@H](CCC(=O)O)NC(=O)C(C)(C)NC(=O)[C@@H](N)Cc1cnc[nH]1)[C@@H](C)O)[C@@H](C)O)C(C)C)C(=O)N[C@@H](C)C(=O)N[C@@H](Cc1c[nH]c2ccccc12)C(=O)N[C@@H](CC(C)C)C(=O)N[C@H](C(=O)N[C@@H](CCCNC(=N)N)C(=O)NCC(=O)N[C@@H](CCCNC(=N)N)C(=O)NCC(=O)O)C(C)C [semaglutide, N-epsilon26-[2-(2-{2-[2-(2-{2-[(S)-4-carboxy-4-(17-carboxyheptadecanoylamino)butyrylamino]ethoxy}ethoxy)acetylamino]ethoxy}ethoxy)acetyl][Aib8,Arg34]GLP-1(7-37), reference compound]
	0.31 10^−8 cm/s		CCCCCCCCCC(=O)N[C@@H](CC(N)=O)C(=O)[O-].[Na+] [Sodium N-decanoyl L-asparaginate]
	2.53 10^−8 cm/s		CCCCCCCCCCCC(=O)N[C@@H](CC(C)C)C(=O)[O-].[Na+] [Sodium N-dodecanoyl L-leucinate]
	2.12 10^−8 cm/s		CCCCCCCCCC(=O)N[C@@H](CC(C)C)C(=O)[O-].[Na+] [Sodium N-decanoyl L-leucinate]
greatest effect	63.88 10^−8 cm/s		CCCCCCCCCCCCCC(=O)N[C@@H](CC(C)C)C(=O)[O-].[Na+] [Sodium N-myristoyl L-leucinate]
